Like-named read-outs stand apart in the source and are kept apart here. Where no end group is shown, it is not given here.
How the values were obtained:
[1] = biological target: T1, κLight1.3 (Homo sapiens, UniProt P41145, INS261[…]/L259S/S262L/V164K); assay type: cell-based
T1 construct: TlcnC (telencephalin) tag (C); PRC tag (C); ER2 (ER export motif FCYENEV) tag (C); expressed in transfected cells; dissociated hippocampal neurons (AAV9-hSyn); mouse brain (AAV9-hSyn)
Target sequence in this assay (P41145 with tags, fused parts or gaps V164K/L259S/INS261[withheld]/S262L): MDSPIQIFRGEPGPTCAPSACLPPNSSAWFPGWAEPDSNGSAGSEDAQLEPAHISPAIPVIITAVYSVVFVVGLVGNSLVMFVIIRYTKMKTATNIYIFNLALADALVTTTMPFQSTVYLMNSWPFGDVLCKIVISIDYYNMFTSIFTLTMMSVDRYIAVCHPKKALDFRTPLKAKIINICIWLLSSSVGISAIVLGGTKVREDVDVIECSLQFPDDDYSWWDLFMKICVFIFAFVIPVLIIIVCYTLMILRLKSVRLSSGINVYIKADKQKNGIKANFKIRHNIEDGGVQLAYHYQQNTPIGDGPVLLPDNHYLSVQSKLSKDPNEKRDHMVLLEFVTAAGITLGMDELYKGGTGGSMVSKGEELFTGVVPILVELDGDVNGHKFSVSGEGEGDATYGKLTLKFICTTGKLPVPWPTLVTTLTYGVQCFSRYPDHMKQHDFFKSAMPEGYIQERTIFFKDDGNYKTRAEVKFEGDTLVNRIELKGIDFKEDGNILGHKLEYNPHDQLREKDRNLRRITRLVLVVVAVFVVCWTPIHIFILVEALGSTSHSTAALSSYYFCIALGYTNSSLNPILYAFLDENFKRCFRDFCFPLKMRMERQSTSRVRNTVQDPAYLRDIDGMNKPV

[2] = tested on: κLight1.3a; assay: two-photon imaging of κLight1.3a response to electrical stimulation in hippocampal CA3 slices; set-up: species or system mouse; conditions: antagonist 100 µM, n = 3 slices
[3] = biological target: T1, κLight1.3; assay type: cell-based; conditions: for EC50: read-out: κLight EC50
Target sequence in this assay (P41145 with tags, fused parts or gaps V164K/L259S/INS261[withheld]/S262L): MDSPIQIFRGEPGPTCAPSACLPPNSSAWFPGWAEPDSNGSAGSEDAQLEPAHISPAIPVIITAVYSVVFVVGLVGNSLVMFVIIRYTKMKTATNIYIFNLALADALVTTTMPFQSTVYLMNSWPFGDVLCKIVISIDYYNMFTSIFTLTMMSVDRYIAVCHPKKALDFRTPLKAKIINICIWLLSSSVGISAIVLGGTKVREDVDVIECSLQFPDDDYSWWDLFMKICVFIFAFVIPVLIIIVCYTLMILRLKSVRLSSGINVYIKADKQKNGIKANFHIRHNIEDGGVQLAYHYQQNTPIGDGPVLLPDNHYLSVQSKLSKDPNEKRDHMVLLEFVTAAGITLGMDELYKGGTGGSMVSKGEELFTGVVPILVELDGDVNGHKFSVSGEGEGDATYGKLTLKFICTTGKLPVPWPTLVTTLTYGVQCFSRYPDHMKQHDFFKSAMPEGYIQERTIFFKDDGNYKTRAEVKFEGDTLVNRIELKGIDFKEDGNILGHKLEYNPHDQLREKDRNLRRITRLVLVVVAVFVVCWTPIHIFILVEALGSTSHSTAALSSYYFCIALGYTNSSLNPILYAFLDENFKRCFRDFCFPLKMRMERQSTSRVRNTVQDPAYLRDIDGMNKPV

[4] = biological target: T2, δLight (Homo sapiens, UniProt P41143, G248L/INS249[…]/V154K); assay type: in vivo, mouse
T2 construct: PRC tag (C); ER2 (ER export motif) tag (C); expressed in transfected cells; dissociated hippocampal neurons (AAV9-hSyn); mouse brain (AAV9-hSyn)
Source text: (§1) We next determined if κLight and δLight can be activated by systemic administration of exogenous small-molecule drugs in vivo. We injected AAV9-hSyn encoding κLight1.3 or δLight, and κLight0 or δLight0 in the arcuate nucleus (ARC) of the hypothalamus, hippocampal CA3 region[43] and NAc[30], areas abundant in κOR and δOR. We next implanted fiber-optic ferrules above each injection site and recorded the fluorescence of κLight and δLight upon intraperitoneal (i.p.) injection of opioid receptor-selective ligands using fiber photometry (Fig. 4a and Extended Data Fig. 4h–j).
For fiber photometry studies, recordings were obtained throughout the entirety of drug injection, Pavlovian conditioning and head-fixed sessions as previously described. Before recording, an optic fiber was attached to the implanted fiber using a ferrule sleeve (Doric, ZR_2.5). Two LEDs were used to excite κLight1.3. […] Laser intensity for the 470-nm- and 405-nm-wavelength bands were measured at the tip of the optic fiber and adjusted to 50 μW before each day of recording. κLight1.3 fluorescence traveled through the same optic fiber before being bandpass filtered (525 ± 25 nm, Doric, FMC4), transduced by a femtowatt silicon photoreceiver (Newport, 2151) and recorded by a real-time processor (TDT, RZ5P). […]
Custom MATLAB scripts were developed for analyzing fiber photometry data in the context of mouse behavior. […] After baseline correction, the photometry trace was z-scored relative to the mean and standard deviation of the session. The post-processed fiber photometry signal was analyzed in the context of animal behavior during Pavlovian conditioning and operant task performance. […] Peak, mean and minimum fluorescence was determined during predetermined time windows for the injection period (0–5 min), reward period (5–20 s), release period (0–20 s) or artifact period (0–20 s) subtracted from peak, mean or minimum fluorescence values in a baseline window (−5 to 0 s). […]

[5] = biological target: µLight (Homo sapiens, UniProt P35372, INS270[…]/V175Q); assay type: cell-based; conditions: for EC50: read-out: μLight EC50
[6] = biological target: T3, δLight0 (Homo sapiens, UniProt P41143, D128N/G248L/INS249[…]/V154K); assay: in vivo fiber photometry of control sensor δLight0 upon i.p. drug injection; set-up: species or system mouse; conditions: 5 mg/kg SNC162, n = 4 animals
T3 construct: ER2 tag (ER export motif FCYENEV) (C); PRC (proximal restriction and clustering) tag, after a GS linker (C); expressed in transfected cells; host or cells: mouse brain neurons (ARC; NAc) transduced in vivo with AAV-hSyn-δLight0
Source text: as §1
For fiber photometry studies, recordings were obtained throughout the entirety of drug injection, Pavlovian conditioning and head-fixed sessions as previously described. […] Laser intensity for the 470-nm- and 405-nm-wavelength bands were measured at the tip of the optic fiber and adjusted to 50 μW before each day of recording. κLight1.3 fluorescence traveled through the same optic fiber before being bandpass filtered (525 ± 25 nm, Doric, FMC4), transduced by a femtowatt silicon photoreceiver (Newport, 2151) and recorded by a real-time processor (TDT, RZ5P). […]
Custom MATLAB scripts were developed for analyzing fiber photometry data in the context of mouse behavior. […] After baseline correction, the photometry trace was z-scored relative to the mean and standard deviation of the session. […]

[7] = tested on: δLight; conditions: neuron cultures; 100 μM ME then 1 mM naloxone
[8] = tested on: κLight1.3a; assay: in situ titration in dissociated hippocampal neurons expressing κLight1.3a; assay type: cell-based, human
[9] = biological target: µLight (Homo sapiens, UniProt P35372, V175Q); assay: biochemical; assay type: binding
[10] = tested on: δLight; conditions: read-out: δLight EC50 in neurons; dissociated hippocampal neurons
[11] = biological target: T4, κLight (Homo sapiens, UniProt P41145, INS261[…]/L259S/S262L/V164K); assay: [3H]diprenorphine displacement binding, κLight cell membranes; conditions: read-out: κLight IC50
T4 construct: TlcnC (telencephalin) tag (C); PRC tag (C); ER2 (ER export motif FCYENEV) tag (C); expressed in transfected cells; dissociated hippocampal neurons (AAV9-hSyn); mouse brain (AAV9-hSyn)

[12] = biological target: T1, κLight1.3; assay type: cell-based; conditions: read-out: κLight1.3 EC50 in neurons; dissociated hippocampal neurons

Sequence of µLight (Homo sapiens, UniProt P35372, V175Q) (P35372 whole entry V175Q, looked up): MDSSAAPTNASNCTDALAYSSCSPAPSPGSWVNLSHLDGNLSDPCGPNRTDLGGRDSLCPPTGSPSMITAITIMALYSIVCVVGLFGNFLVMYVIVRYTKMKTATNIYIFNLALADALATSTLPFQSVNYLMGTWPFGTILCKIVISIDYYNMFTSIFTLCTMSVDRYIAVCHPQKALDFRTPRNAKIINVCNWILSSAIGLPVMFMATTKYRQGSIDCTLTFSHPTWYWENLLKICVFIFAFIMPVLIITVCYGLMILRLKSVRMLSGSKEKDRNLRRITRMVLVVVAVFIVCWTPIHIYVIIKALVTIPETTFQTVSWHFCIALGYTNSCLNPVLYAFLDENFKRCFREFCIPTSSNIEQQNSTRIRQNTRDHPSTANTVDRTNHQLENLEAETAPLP
Sequence of µLight (Homo sapiens, UniProt P35372, INS270[…]/V175Q) (P35372 with tags, fused parts or gaps V175Q/INS270[withheld]): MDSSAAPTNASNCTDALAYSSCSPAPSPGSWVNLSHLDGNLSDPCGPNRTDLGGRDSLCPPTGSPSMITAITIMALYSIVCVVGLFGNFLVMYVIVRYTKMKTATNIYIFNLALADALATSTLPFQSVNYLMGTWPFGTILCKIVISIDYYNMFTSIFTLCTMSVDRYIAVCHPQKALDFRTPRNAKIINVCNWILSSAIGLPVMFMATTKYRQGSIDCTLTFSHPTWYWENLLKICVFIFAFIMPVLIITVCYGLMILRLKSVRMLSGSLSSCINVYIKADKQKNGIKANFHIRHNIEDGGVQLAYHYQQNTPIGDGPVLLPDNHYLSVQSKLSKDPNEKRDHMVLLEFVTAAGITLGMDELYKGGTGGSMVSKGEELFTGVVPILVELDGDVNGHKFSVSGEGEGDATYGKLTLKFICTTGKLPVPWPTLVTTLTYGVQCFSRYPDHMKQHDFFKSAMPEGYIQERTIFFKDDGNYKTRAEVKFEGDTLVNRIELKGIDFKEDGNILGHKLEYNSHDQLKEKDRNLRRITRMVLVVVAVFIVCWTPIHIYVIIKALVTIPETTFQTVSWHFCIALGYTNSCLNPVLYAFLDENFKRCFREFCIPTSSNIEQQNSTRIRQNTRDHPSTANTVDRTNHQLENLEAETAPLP
T2 sequence (P41143 with tags, fused parts or gaps, stated change not applied): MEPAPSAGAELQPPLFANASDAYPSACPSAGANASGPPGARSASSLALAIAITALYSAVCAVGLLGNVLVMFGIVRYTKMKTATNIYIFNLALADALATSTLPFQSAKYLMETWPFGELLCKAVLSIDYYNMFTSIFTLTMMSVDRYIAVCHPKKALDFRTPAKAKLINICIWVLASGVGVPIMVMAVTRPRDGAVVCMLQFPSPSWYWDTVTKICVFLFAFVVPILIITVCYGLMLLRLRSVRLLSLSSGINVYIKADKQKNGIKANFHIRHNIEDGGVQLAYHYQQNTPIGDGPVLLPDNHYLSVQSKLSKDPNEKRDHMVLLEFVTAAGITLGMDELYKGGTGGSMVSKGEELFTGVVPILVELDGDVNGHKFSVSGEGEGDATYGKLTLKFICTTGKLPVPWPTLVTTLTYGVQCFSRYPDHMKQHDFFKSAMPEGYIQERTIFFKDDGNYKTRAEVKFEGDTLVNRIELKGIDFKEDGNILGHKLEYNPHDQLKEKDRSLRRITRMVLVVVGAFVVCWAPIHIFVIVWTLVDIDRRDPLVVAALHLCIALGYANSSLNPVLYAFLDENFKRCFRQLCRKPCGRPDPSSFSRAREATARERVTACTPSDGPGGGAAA
T3 sequence (P41143 with tags, fused parts or gaps, stated change not applied): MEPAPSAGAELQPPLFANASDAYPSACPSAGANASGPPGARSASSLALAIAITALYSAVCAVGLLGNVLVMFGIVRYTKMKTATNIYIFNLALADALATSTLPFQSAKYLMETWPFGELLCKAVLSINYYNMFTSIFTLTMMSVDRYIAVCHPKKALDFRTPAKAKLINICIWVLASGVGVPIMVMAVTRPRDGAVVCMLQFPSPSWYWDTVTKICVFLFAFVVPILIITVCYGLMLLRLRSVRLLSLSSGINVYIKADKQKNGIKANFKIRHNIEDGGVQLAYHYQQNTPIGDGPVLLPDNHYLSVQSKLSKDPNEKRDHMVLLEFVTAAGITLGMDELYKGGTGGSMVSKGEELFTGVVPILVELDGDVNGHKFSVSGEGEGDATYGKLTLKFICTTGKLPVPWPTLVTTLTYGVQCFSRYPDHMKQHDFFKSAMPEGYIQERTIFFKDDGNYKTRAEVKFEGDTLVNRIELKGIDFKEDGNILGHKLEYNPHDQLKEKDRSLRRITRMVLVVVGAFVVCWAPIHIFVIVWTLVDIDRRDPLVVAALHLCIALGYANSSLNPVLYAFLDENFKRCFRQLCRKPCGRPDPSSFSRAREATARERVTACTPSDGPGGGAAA

Compound: ICI 174864
- antagonism of κLight activation by DynA13 [1]: did not observe apparent antagonism
- peak ΔF/F of κLight1.3a to 15 electrical stimuli in presence of antagonist [2]: 6.44% ± 0.3

Compound: CC(C)[C@H](NC(=O)[C@H](CC(=O)O)NC(=O)[C@H](Cc1ccccc1)NC(=O)[C@@H](C)NC(=O)[C@@H](N)Cc1ccc(O)cc1)C(=O)N[C@H](C(=O)NCC(N)=O)C(C)C [Deltorphin I]
- Normalized ΔF/F of κLight1.3 [3]: 0.26 ± 0.02

Compound: CC(C)C[C@H](NC(=O)[C@H](Cc1ccccc1)NC(=O)CNC(=O)CNC(=O)[C@@H](N)Cc1ccc(O)cc1)C(=O)O [LE, Leu-enkephalin]
- Normalized ΔF/F of κLight1.3 [3]: 0.24 ± 0.02

Compound: C=CCN1C[C@H](C)N([C@@H](c2ccccc2)c2ccc(C(=O)N(CC)CC)cc2)C[C@H]1C [SNC162]
- z-score peak of δLight ([4]; ARC, SNC162 2.25 mg per kg): 2.4 ± 1.0
- z-score peak of δLight ([4]; ARC, SNC162 5 mg per kg): 7.28 ± 2.4
- z-score peak of δLight ([4]; NAc, SNC162 5 mg per kg): 7.45 ± 2.20
- μLight ΔF/F max (%) [5]: 2.9±1.69%
- EC50 [5]: 87.3 nM
- peak z-score of δLight0 ([6]; ARC (panel j)): 0.77 ± 0.5%
- peak z-score of δLight0 ([6]; ARC as printed (panel l)): −0.61 ± 0.4%
- Normalized ΔF/F of κLight1.3 [3]: 0.009 ± 0.02
- κLight ΔF/F max (%) [3]: 12.2±2.39%
- EC50 [3]: 8280 nM

Compound: C=CCN1CC[C@]23c4c5ccc(O)c4O[C@H]2C(=O)CC[C@@]3(O)[C@H]1C5 [naloxone]
- δLight ΔF/F, + antagonist response [7]: 1.82 ± 2.4%

Compound: CC[C@H](C)[C@H](NC(=O)[C@H](C)NC(=O)[C@H](CC(N)=O)NC(=O)[C@H](CCCCN)NC(=O)[C@H](Cc1ccccc1)NC(=O)[C@H](CC(C)C)NC(=O)[C@@H](NC(=O)[C@@H](NC(=O)[C@H](CC(C)C)NC(=O)[C@@H]1CCCN1C(=O)[C@@H](NC(=O)[C@H](CCC(N)=O)NC(=O)[C@H](CO)NC(=O)[C@H](CCCCN)NC(=O)[C@H](CCC(=O)O)NC(=O)[C@H](CO)NC(=O)[C@@H](NC(=O)[C@H](CCSC)NC(=O)[C@H](Cc1ccccc1)NC(=O)CNC(=O)CNC(=O)[C@@H](N)Cc1ccc(O)cc1)[C@@H](C)O)[C@@H](C)O)C(C)C)[C@@H](C)O)C(=O)N[C@H](C(=O)N[C@@H](CCCCN)C(=O)N[C@@H](CC(N)=O)C(=O)N[C@@H](C)C(=O)N[C@@H](Cc1ccc(O)cc1)C(=O)N[C@@H](CCCCN)C(=O)N[C@@H](CCCCN)C(=O)NCC(=O)N[C@@H](CCC(=O)O)C(=O)O)[C@@H](C)CC [β-endorphin]
- EC50 [8]: 2710 nM
- μLight % bound at 10 μM [9]: 46±3%
- Normalized ΔF/F of κLight1.3 [3]: 0.21 ± 0.01
- EC50 [10]: 217 nM

Compound: CC[C@H](C)[C@H](NC(=O)[C@H](CCCNC(=N)N)NC(=O)[C@H](CCCNC(=N)N)NC(=O)[C@H](CC(C)C)NC(=O)[C@H](Cc1ccccc1)NC(=O)CNC(=O)CNC(=O)[C@@H](N)Cc1ccc(O)cc1)C(=O)O [DynA8, dynorphin A1-8]
- IC50 [9]: 48 ± 2 nM
- μLight % bound at 10 μM [9]: 58±2%
- Normalized ΔF/F of κLight1.3 [3]: 0.61 ± 0.04

Compound: CN(C(=O)/C=C/c1ccoc1)[C@@H]1CC[C@@]2(O)[C@H]3Cc4ccc(O)c5c4[C@@]2(CCN3CC2CC2)[C@H]1O5 [Nalfurafine, nalfurafine]
- Normalized ΔF/F of κLight1.3 [3]: 1.91 ± 0.09

Compound: YGGFLRKYP [β-neoendorphin]
- IC50 [11]: 13 ± 2 nM
- EC50 [5]: 6310 nM
- Normalized ΔF/F of κLight1.3 [3]: 0.26 ± 0.03
- EC50 [3]: 25.9 nM

Compound: CC1(C)SSC(C)(C)[C@@H](NC(=O)[C@@H](N)Cc2ccc(O)cc2)C(=O)NCC(=O)N[C@@H](Cc2ccccc2)C(=O)N[C@H]1C(=O)O [DPDPE]
- Normalized ΔF/F of κLight1.3 [3]: 0.19 ± 0.04
- κLight ΔF/F max (%) [3]: 20.5±1.67%

Compound: Oc1ccc2c3c1O[C@H]1c4[nH]c5c(c4C[C@@]4(O)[C@@H](C2)N(CC2CC2)CC[C@]314)C[C@@]1(O)[C@H]2Cc3ccc(O)c4c3[C@@]1(CCN2CC1CC1)[C@H]5O4 [Nor-BNI, nor-binaltorphimine]
- pA2 at κLight1.3 [1]: 8.28
- peak ΔF/F of κLight1.3a to 15 electrical stimuli in presence of antagonist [2]: 1.57% ± 1.2

Compound: CSCC[C@H](NC(=O)[C@H](Cc1ccccc1)NC(=O)CNC(=O)CNC(=O)[C@@H](N)Cc1ccc(O)cc1)C(=O)O [ME, met-enkephalin]
- EC50 [8]: 9650 nM
- IC50 [11]: 130 ± 3 nM
- EC50 [12]: 52100 nM
- Normalized ΔF/F of κLight1.3 [3]: 0.18 ± 0.005
- EC50 [3]: 6640 nM

Compound: CC[C@H](C)[C@H](NC(=O)[C@H](CCCNC(=N)N)NC(=O)[C@H](CCCNC(=N)N)NC(=O)[C@H](CC(C)C)NC(=O)[C@H](Cc1ccccc1)NC(=O)CNC(=O)CNC(=O)[C@@H](N)Cc1ccc(O)cc1)C(=O)N[C@@H](CCCNC(=N)N)C(=O)N1CCC[C@H]1C(=O)N[C@@H](CCCCN)C(=O)N[C@@H](CC(C)C)C(=O)N[C@@H](CCCCN)C(=O)O [DynA13, dynorphin A1-13]
- EC50 [8]: 35.4 nM
- EC50 [12]: 19.2 nM
- EC50 [3]: 0.0898 nM
- EC50 [10]: 562 nM

Compound: C[C@@H](NC(=O)[C@@H](N)Cc1ccc(O)cc1)C(=O)NCC(=O)N(C)[C@@H](Cc1ccccc1)C(=O)NCCO [DAMGO]
- μLight ΔF/F max (%) [5]: 50.5±1.95%
- μLight % bound at 10 μM [9]: 79±3%
- Normalized ΔF/F of κLight1.3 [3]: 0.17 ± 0.03

Compound: YGGFMRRVGRPEWWMDYQKRYGGFL [Peptide E]
- IC50 [11]: 252 ± 2 nM
- μLight % bound at 10 μM [9]: 65±2%
- IC50 ([9]; read-out: μLight IC50): 154 ± 2 nM

Compound: YGGFLRRQF [DynB9, Dynorphin B9]
- EC50 [5]: 3760 nM
- Normalized ΔF/F of κLight1.3 [3]: 0.97 ± 0.03
- EC50 [3]: 10 nM

Compound: COc1ccc2c3c1O[C@H]1C(=O)CC[C@@]4(O)[C@@H](C2)N(C)CC[C@]314 [Oxycodone, oxycodone]
- µLight fluorescence response [5]: suppressed
- μLight ΔF/F max (%) [5]: -12.8±2.78%
- μLight % bound at 10 μM [9]: 32±3%
- Normalized ΔF/F of κLight1.3 [3]: 0.16 ± 0.04

Compound: YGGFMRRVGRPEWWMDYQ [BAM18]
- IC50 [11]: 243 ± 2 nM
- EC50 [5]: 186 nM
- IC50 ([9]; read-out: μLight IC50): 14 ± 2 nM
- Normalized ΔF/F of κLight1.3 [3]: 0.48 ± 0.03
- EC50 [3]: 35.6 nM
